Biological target: human GPBAR1 receptor (Homo sapiens (Human), UniProt Q8TDU6)
Experiment: functional cAMP assay in CHO-dhfr(minus) cells expressing human GPBAR1 receptors
Assay type: cell-based
Conditions: CHO-dhfr(minus) cells expressing human GPBAR1, 30 min at 30° C.
Summary of the method: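 CHO-dhfr- cells were transfected with human GPBAR1, and a clone was chosen by cAMP response to lithocholic acid. EC50 values come from the cAMP read-out; specificity was checked in non-transfected CHO cells.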

Sequence of human GPBAR1 receptor (Q8TDU6 whole entry): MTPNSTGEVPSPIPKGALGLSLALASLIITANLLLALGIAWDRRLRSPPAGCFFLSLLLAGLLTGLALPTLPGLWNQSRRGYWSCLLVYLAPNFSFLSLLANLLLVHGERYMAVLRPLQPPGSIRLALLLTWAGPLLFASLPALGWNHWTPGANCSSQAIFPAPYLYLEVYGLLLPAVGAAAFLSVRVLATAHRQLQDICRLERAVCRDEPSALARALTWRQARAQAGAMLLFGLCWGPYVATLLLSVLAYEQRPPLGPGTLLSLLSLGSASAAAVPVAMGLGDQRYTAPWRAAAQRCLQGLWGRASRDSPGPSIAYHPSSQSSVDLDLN

Point of comparison: `COc1cc(F)ccc1-c1ccncc1N(Cc1cc(C)on1)C(=O)c1cc(C(F)(F)F)cc(S(C)(=O)=O)c1` [Example 231, N-[4-(4-Fluoro-2-methoxy-phenyl)-pyridin-3-yl]-3-methanesulfonyl-N-(5-methyl-isoxazol-3-ylmethyl)-5-trifluoromethyl-benzamide], EC50 3500 nM. Against it:
- COc1cc(F)c(F)cc1-c1ccncc1N(CC(N)=O)C(=O)c1cc(C(F)(F)F)cc(S(C)(=O)=O)c1 [Example 193, N-(2-Amino-2-oxoethyl)-N-(4-(4,5-difluoro-2-methoxyphenyl)pyridin-3-yl)-3-(methylsulfonyl)-5-(trifluoromethyl)benzamide] — 7.7-fold lower, 456 nM
- CN(C(=O)c1cc(C(F)(F)F)cc(C(F)(F)F)c1)c1cnccc1-c1ncccc1F [Example 68, N-(3-Fluoro-[2,4′]bipyridinyl-3′-yl)-N-methyl-3,5-bis-trifluoromethyl-benzamide] — 4.4-fold lower, 801 nM
- Cc1ccccc1-c1ccncc1N(C)C(=O)c1ccc(C(F)(F)F)c(C(F)(F)F)c1 [Example 101, N-Methyl-N-(4-o-tolyl-pyridin-3-yl)-3,4-bis-trifluoromethyl-benzamide] — 12-fold lower, 298 nM
- COc1cc(F)ccc1-c1ccncc1N(C)C(=O)c1cc(SC2COC2)cc(C(F)(F)F)c1 [Example 251, N-[4-(4-Fluoro-2-methoxy-phenyl)-pyridin-3-yl]-N-methyl-3-(oxetan-3-ylsulfanyl)-5-trifluoromethyl-benzamide] — 120-fold lower, 30 nM
- COc1ncc(Cl)cc1-c1ccncc1N(C)C(=O)c1cc(C(F)(F)F)cc(C(F)(F)F)c1 [Example 45, N-(5-Chloro-2-methoxy-[3,4′]bipyridinyl-3′-yl)-N-methyl-3,5-bis-trifluoromethyl-benzamide] — 12-fold lower, 302 nM
- Cc1cc(C(=O)N(C)c2cnccc2-c2ccccc2C)cc(Cl)n1 [Example 119, 2-Chloro-6,N-dimethyl-N-(4-o-tolyl-pyridin-3-yl)-isonicotinamide] — 5.7-fold lower, 610 nM
- CN(C(=O)c1cc(C(F)(F)F)cc(S(C)(=O)=O)c1)c1cnccc1-c1ccc(F)cc1OCc1ccccc1 [Example 267, N-[4-(2-Benzyloxy-4-fluoro-phenyl)-pyridin-3-yl]-3-methanesulfonyl-N-methyl-5-trifluoromethyl-benzamide] — within 1.5-fold, 3460 nM
- COc1cc(F)ccc1-c1ccncc1N(C)C(=O)c1cc(OCCO)cc(C(F)(F)F)c1 [Example 240, N-[4-(4-Fluoro-2-methoxy-phenyl)-pyridin-3-yl]-3-(2-hydroxy-ethoxy)-N-methyl-5-trifluoromethyl-benzamide] — 3-fold lower, 1150 nM
- CN(C(=O)c1cc(C(F)(F)F)cc(S(C)(=O)=O)c1)c1cnccc1-c1ccccc1OC(F)(F)F [Example 274, 3-Methanesulfonyl-N-methyl-N-[4-(2-trifluoromethoxy-phenyl)-pyridin-3-yl]-5-trifluoromethyl-benzamide] — 100-fold lower, 34 nM
- Cc1ccccc1-c1ccncc1N(C)C(=O)c1cc(F)c(F)c(F)c1 [Example 104, 3,4,5-Trifluoro-N-methyl-N-(4-o-tolyl-pyridin-3-yl)-benzamide] — 2.1-fold lower, 1640 nM
- COc1ncccc1-c1ccncc1N(CC(N)=O)C(=O)c1cc(C(F)(F)F)cc(S(C)(=O)=O)c1 [Example 181, N-Carbamoylmethyl-3-methanesulfonyl-N-(2-methoxy-[3,4′]bipyridinyl-3′-yl)-5-trifluoromethyl-benzamide] — within 1.5-fold, 2950 nM
- COc1cc(F)ccc1-c1ccncc1N(C)C(=O)c1cc(C(F)(F)F)cc(S(=O)(=O)CCCCC(=O)O)c1 [Example 248, 5-(3-{[4-(4-Fluoro-2-methoxy-phenyl)-pyridin-3-yl]-methyl-carbamoyl}-5-trifluoromethyl-benzenesulfonyl)-pentanoic acid] — 11-fold lower, 323 nM
- CN(C(=O)c1cc(C(F)(F)F)cc(S(C)(=O)=O)c1)c1cnccc1-c1ccccc1OCc1ccccc1 [Example 258, N-[4-(2-Benzyloxy-phenyl)-pyridin-3-yl]-3-methanesulfonyl-N-methyl-5-trifluoromethyl-benzamide] — 1.9-fold lower, 1860 nM
- CN(C(=O)c1cc(C(F)(F)F)cc(C(F)(F)F)c1)c1cnccc1-c1ccccc1OC(F)(F)F [Example 31, N-Methyl-N-[4-(2-trifluoromethoxy-phenyl)-pyridin-3-yl]-3,5-bis-trifluoromethyl-benzamide] — 120-fold lower, 29 nM
- Cc1ccc(F)cc1-c1ccncc1N(C)C(=O)c1cc(C(F)(F)F)cc(S(C)(=O)=O)c1 [Example 276, N-[4-(5-Fluoro-2-methyl-phenyl)-pyridin-3-yl]-3-methanesulfonyl-N-methyl-5-trifluoromethyl-benzamide] — 22-fold lower, 162 nM
- Cc1ccccc1-c1cc(-c2ccc[nH]2)ncc1N(C)C(=O)c1cc(C(F)(F)F)cc(C(F)(F)F)c1 [Example 113, N-Methyl-N-[6-(1H-pyrrol-2-yl)-4-o-tolyl-pyridin-3-yl]-3,5-bis-trifluoromethyl-benzamide] — 1.7-fold lower, 2010 nM
- COc1ncccc1-c1ccncc1N(CC(N)=O)C(=O)c1cc(C(F)(F)F)nc(C(F)(F)F)c1 [Example 183, N-(2-Amino-2-oxoethyl)-N-(2-methoxy-3,4′-bipyridin-3′-yl)-2,6-bis(trifluoromethyl)-isonicotinamide] — 17-fold lower, 206 nM
- COc1cc(C(=O)N(C)c2cnccc2-c2ccc(F)cc2OC)cc(C(F)(F)F)n1 [Example 206, N-[4-(4-Fluoro-2-methoxy-phenyl)-pyridin-3-yl]-2-methoxy-N-methyl-6-trifluoromethyl-isonicotinamide] — 150-fold lower, 23 nM
- Cc1ccccc1-c1ccncc1N(C)C(=O)c1cc(Cl)cc(C(F)(F)F)c1 [Example 109, 3-Chloro-N-methyl-N-(4-o-tolyl-pyridin-3-yl)-5-trifluoromethyl-benzamide] — 160-fold lower, 22 nM
- COc1cc(F)ccc1-c1ccncc1N(Cc1nc(C)co1)C(=O)c1cc(C(F)(F)F)cc(S(C)(=O)=O)c1 [Example 293, N-[4-(4-Fluoro-2-methoxy-phenyl)-pyridin-3-yl]-3-methanesulfonyl-N-(4-methyl-oxazol-2-ylmethyl)-5-trifiuoromethyl-benzamide] — within 1.5-fold, 2460 nM
- COc1ncccc1-c1ccncc1N(CC(F)(F)F)C(=O)c1cc(C(F)(F)F)nc(C(F)(F)F)c1 [Example 145, N-(2-Methoxy-[3,4′]bipyridinyl-3′-yl)-N-(2,2,2-trifluoro-ethyl)-2,6-bis-trifluoromethyl-isonicotinamide] — 120-fold lower, 30 nM
- CC(C)Oc1ncccc1-c1ccncc1N(C)C(=O)c1cc(C(F)(F)F)cc(C(F)(F)F)c1 [Example 46, N-(2-Isopropoxy-[3,4′]bipyridinyl-3′-yl)-N-methyl-3,5-bis-trifluoromethyl-benzamide] — 3.8-fold lower, 924 nM
- COc1ccc(-c2ccncc2N(C)C(=O)c2cc(C(F)(F)F)cc(C(F)(F)F)c2)c(C)c1 [Example 27, N-[4-(4-Methoxy-2-methyl-phenyl)-pyridin-3-yl]-N-methyl-3,5-bis-trifluoromethyl-benzamide] — 3.3-fold lower, 1050 nM
- Cc1ccccc1-c1ccncc1N(C)C(=O)c1ccc(C(F)(F)F)cc1 [Example 90, N-Methyl-N-(4-o-tolyl-pyridin-3-yl)-4-trifluoromethyl-benzamide] — within 1.5-fold, 2740 nM
- CC(C)N(C(=O)c1cc(C(F)(F)F)cc(C(F)(F)F)c1)c1cnccc1-c1ccccc1Cl [Example 126, N-[4-(2-Chloro-phenyl)-pyridin-3-yl]-N-isopropyl-3,5-bis-trifluoromethyl-benzamide] — 5.6-fold lower, 620 nM
- COc1cc(F)ccc1-c1cc(C)ncc1N(C)C(=O)c1cc(Cl)cc(S(C)(=O)=O)c1 [Example 301, 3-Chloro-N-[4-(4-fluoro-2-methoxy-phenyl)-6-methyl-pyridin-3-yl]-5-methanesulfonyl-N-methyl-benzamide] — 16-fold lower, 219 nM
- COc1cc(F)ccc1-c1cc(C)ncc1N(CC(F)(F)F)C(=O)c1cc(C(F)(F)F)cc(S(C)(=O)=O)c1 [Example 307, N-[4-(4-Fluoro-2-methoxy-phenyl)-6-methyl-pyridin-3-yl]-3-methanesulfonyl-N-(2,2,2-trifluoro-ethyl)-5-trifluoromethyl-benzamide] — 12-fold lower, 300 nM
- COc1cc(F)ccc1-c1ccncc1N(C)C(=O)c1cc(SC2CNC2)cc(C(F)(F)F)c1 [Example 275, 3-(Azetidin-3-ylsulfanyl)-N-[4-(4-fluoro-2-methoxy-phenyl)-pyridin-3-yl]-N-methyl-5-trifluoromethyl-benzamide] — 2.8-fold lower, 1230 nM
- CC(C#N)Oc1cc(F)ccc1-c1ccncc1N(C)C(=O)c1cc(C(F)(F)F)cc(C(F)(F)F)c1 (centres unmarked) [Example 53, N-{4-[2-(Cyano-methyl-methoxy)-4-fluoro-phenyl]-pyridin-3-yl}-N-methyl-3,5-bis-trifluoromethyl-benzamide] — 3.2-fold lower, 1100 nM
- CS(=O)(=O)c1cc(C(=O)N(CC#N)c2cnccc2-c2ccccc2OC(F)(F)F)cc(C(F)(F)F)c1 [Example 311, N-Cyanomethyl-3-methanesulfonyl-N-[4-(2-trifluoromethoxy-phenyl)-pyridin-3-yl]-5-trifluoromethyl-benzamide] — 43-fold lower, 81 nM
- CN(C(=O)c1cc(C(F)(F)F)cc(C(F)(F)F)c1)c1cnccc1-c1ccccc1CC#N [Example 175, N-[4-(2-Cyanomethyl-phenyl)-pyridin-3-yl]-N-methyl-3,5-bis-trifluoromethyl-benzamide] — 6.1-fold lower, 571 nM
- Cc1ccccc1-c1cc(C#N)ncc1N(C)C(=O)c1cc(C(F)(F)F)cc(C(F)(F)F)c1 [Example 19, N-(6-Cyano-4-o-tolyl-pyridin-3-yl)-N-methyl-3,5-bis-trifluoromethyl-benzamide] — 10-fold lower, 340 nM
- O=C(c1cc(C(F)(F)F)cc(C(F)(F)F)c1)N(CCO)c1cnccc1-c1ccccc1Cl [Example 115, N-[4-(2-Chloro-phenyl)-pyridin-3-yl]-N-(2-hydroxy-ethyl)-3,5-bis-trifluoromethyl-benzamide] — 53-fold lower, 66 nM
- COc1cccc(F)c1-c1ccncc1N(CC(N)=O)C(=O)c1cc(C(F)(F)F)nc(C(F)(F)F)c1 [Example 199, N-Carbamoylmethyl-N-[4-(2-fluoro-6-methoxy-phenyl)-pyridin-3-yl]-2,6-bis-trifluoromethyl-isonicotinamide] — 110-fold lower, 33 nM
